Test results reported in ChEMBL document CHEMBL1201862, “PubChem BioAssay data set” (2004).
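48-hour exposure; five concentrations; linearly interpolated endpoints. GI50 marks 50% less growth.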 The source made the active and inactive calls. Cut-off read from the data, not from the text of the source: active = GI50 up to about 1.1 µM and inactive = higher.

Key:
Experiment in all cases: growth of human tumour cells (NCI), 48 h
HT-29 = test system: HT-29
NCI-H226 = test system: NCI-H226
M14 = test system: M14
CCRF-CEM = test system: CCRF-CEM
OVCAR-5 = test system: OVCAR-5
SK-MEL-28 = test system: SK-MEL-28
SK-OV-3 = test system: SK-OV-3
OVCAR-4 = test system: OVCAR-4
UO-31 = test system: UO-31
U-251 = test system: U-251
SN12C = test system: SN12C
DMS-114 = test system: DMS-114
IGROV-1 = test system: IGROV-1
A549 = test system: A549
NCI-H460 = test system: NCI-H460
RPMI-8226 = test system: RPMI-8226
K562 = test system: K562
OVCAR-3 = test system: OVCAR-3
SNB-75 = test system: SNB-75
Malme-3M = test system: Malme-3M
NCI-H522 = test system: NCI-H522
SF-539 = test system: SF-539
UACC-257 = test system: UACC-257
HCT-116 = test system: HCT-116
KM12 = test system: KM12
SK-MEL-2 = test system: SK-MEL-2
DMS-273 = test system: DMS-273
A498 = test system: A498
OVCAR-8 = test system: OVCAR-8
HCT-15 = test system: HCT-15
SF-295 = test system: SF-295
SW-620 = test system: SW-620
SK-MEL-5 = test system: SK-MEL-5
EKVX = test system: EKVX
MOLT-4 = test system: MOLT-4
SNB-78 = test system: SNB-78
UACC-62 = test system: UACC-62
NCI-H23 = test system: NCI-H23
RXF 631 = test system: RXF 631
HOP-62 = test system: HOP-62
HCC 2998 = test system: HCC 2998
RXF 393 = test system: RXF 393
HOP-18 = test system: HOP-18
786-0 = test system: 786-0
LOX IMVI = test system: LOX IMVI
LXFL 529 = test system: LXFL 529
SNB-19 = test system: SNB-19
HL-60 = test system: HL-60
SF-268 = test system: SF-268
HOP-92 = test system: HOP-92
CAKI-1 = test system: CAKI-1
ACHN = test system: ACHN
KM-20L2 = test system: KM-20L2
M19-MEL = test system: M19-MEL
TK-10 = test system: TK-10
SR = test system: SR
COLO 205 = test system: COLO 205
DLD-1 = test system: DLD-1
XF498 = test system: XF498

Q: How did the GI50 (HT-29) turn out when CCN(CC)CCCCC1CCN(CC(=O)N2c3ccccc3NC(=O)CC2C)CC1 (stereo not given) was run?
A: > 100 µM (inactive)

Q: What about the GI50 (NCI-H226) of the same compound?
A: > 100 µM (inactive)

Q: And the GI50 (M14)?
A: > 100 µM (inactive)

Q: And the GI50 (CCRF-CEM)?
A: 65.8 µM (inactive)

Q: What about the GI50 (OVCAR-5) of the same compound?
A: > 100 µM (inactive)

Q: What about the GI50 (SK-MEL-28) of the same compound?
A: > 100 µM (inactive)

Q: What about the GI50 (SK-OV-3) of the same compound?
A: > 100 µM (inactive)

Q: And the GI50 (OVCAR-4)?
A: > 100 µM (inactive)

Q: What about the GI50 (UO-31) of the same compound?
A: > 100 µM (inactive)

Q: And the GI50 (U-251)?
A: > 100 µM (inactive)

Q: And the GI50 (SN12C)?
A: > 100 µM (inactive)

Q: And the GI50 (DMS-114)?
A: 69 µM (inactive)

Q: And the GI50 (IGROV-1)?
A: > 100 µM (inactive)

Q: And the GI50 (A549)?
A: > 100 µM (inactive)

Q: And the GI50 (NCI-H460)?
A: > 100 µM (inactive)

Q: What about the GI50 (RPMI-8226) of the same compound?
A: 88.1 µM (inactive)

Q: What about the GI50 (K562) of the same compound?
A: > 100 µM (inactive)

Q: What about the GI50 (OVCAR-3) of the same compound?
A: > 100 µM (inactive)

Q: And the GI50 (SNB-75)?
A: > 100 µM (inactive)

Q: What about the GI50 (Malme-3M) of the same compound?
A: > 100 µM (inactive)

Q: And the GI50 (NCI-H522)?
A: 30.3 µM (inactive)

Q: What about the GI50 (SF-539) of the same compound?
A: > 100 µM (inactive)

Q: And the GI50 (UACC-257)?
A: > 100 µM (inactive)

Q: And the GI50 (HCT-116)?
A: > 100 µM (inactive)

Q: And the GI50 (KM12)?
A: > 100 µM (inactive)

Q: And the GI50 (SK-MEL-2)?
A: > 100 µM (inactive)

Q: What about the GI50 (DMS-273) of the same compound?
A: > 100 µM (inactive)

Q: What about the GI50 (A498) of the same compound?
A: > 100 µM (inactive)

Q: And the GI50 (OVCAR-8)?
A: > 100 µM (inactive)

Q: What about the GI50 (HCT-15) of the same compound?
A: > 100 µM

Q: And the GI50 (SF-295)?
A: > 100 µM (inactive)

Q: What about the GI50 (SW-620) of the same compound?
A: > 100 µM (inactive)

Q: What about the GI50 (SK-MEL-5) of the same compound?
A: 98.4 µM (inactive)

Q: What about the GI50 (EKVX) of the same compound?
A: > 100 µM (inactive)

Q: And the GI50 (MOLT-4)?
A: > 100 µM (inactive)

Q: And the GI50 (SNB-78)?
A: > 100 µM (inactive)

Q: What about the GI50 (UACC-62) of the same compound?
A: > 100 µM (inactive)

Q: And the GI50 (NCI-H23)?
A: > 100 µM (inactive)

Q: What about the GI50 (RXF 631) of the same compound?
A: 30.1 µM (inactive)

Q: What about the GI50 (HOP-62) of the same compound?
A: > 100 µM (inactive)

Q: What about the GI50 (HCC 2998) of the same compound?
A: > 100 µM (inactive)

Q: What about the GI50 (RXF 393) of the same compound?
A: 76.7 µM (inactive)

Q: And the GI50 (HOP-18)?
A: > 100 µM (inactive)

Q: What about the GI50 (786-0) of the same compound?
A: > 100 µM (inactive)

Q: What about the GI50 (LOX IMVI) of the same compound?
A: 19.4 µM (inactive)

Q: And the GI50 (LXFL 529)?
A: > 100 µM (inactive)

Q: What about the GI50 (SNB-19) of the same compound?
A: > 100 µM (inactive)

Q: And the GI50 (HL-60)?
A: 64.1 µM (inactive)

Q: What about the GI50 (SF-268) of the same compound?
A: > 100 µM (inactive)

Q: And the GI50 (HOP-92)?
A: > 100 µM (inactive)

Q: And the GI50 (CAKI-1)?
A: > 100 µM (inactive)

Q: What about the GI50 (ACHN) of the same compound?
A: > 100 µM (inactive)

Q: What about the GI50 (KM-20L2) of the same compound?
A: > 100 µM (inactive)

Q: And the GI50 (M19-MEL)?
A: > 100 µM (inactive)

Q: And the GI50 (TK-10)?
A: > 100 µM (inactive)

Q: What about the GI50 (SR) of the same compound?
A: 56.6 µM (inactive)

Q: What about the GI50 (COLO 205) of the same compound?
A: > 100 µM (inactive)

Q: How did the GI50 (HT-29) turn out when Cc1nc(C)c(C(=O)Nc2cccc3c2C(=O)NC3=O)cc1C(=O)Nc1cccc2c1C(=O)NC2=O was run?
A: > 100 µM (inactive)

Q: And the GI50 (NCI-H226)?
A: > 100 µM (inactive)

Q: What about the GI50 (M14) of the same compound?
A: > 100 µM (inactive)

Q: What about the GI50 (CCRF-CEM) of the same compound?
A: > 100 µM (inactive)

Q: And the GI50 (OVCAR-5)?
A: > 100 µM (inactive)

Q: And the GI50 (SK-MEL-28)?
A: > 100 µM (inactive)

Q: What about the GI50 (SK-OV-3) of the same compound?
A: > 100 µM (inactive)

Q: What about the GI50 (OVCAR-4) of the same compound?
A: > 100 µM (inactive)

Q: And the GI50 (UO-31)?
A: > 100 µM (inactive)

Q: And the GI50 (U-251)?
A: > 100 µM (inactive)

Q: What about the GI50 (SN12C) of the same compound?
A: > 100 µM (inactive)

Q: And the GI50 (DMS-114)?
A: > 100 µM (inactive)

Q: And the GI50 (IGROV-1)?
A: > 100 µM (inactive)

Q: What about the GI50 (A549) of the same compound?
A: > 100 µM (inactive)

Q: What about the GI50 (NCI-H460) of the same compound?
A: > 100 µM (inactive)

Q: And the GI50 (RPMI-8226)?
A: > 100 µM (inactive)

Q: What about the GI50 (K562) of the same compound?
A: > 100 µM (inactive)

Q: What about the GI50 (OVCAR-3) of the same compound?
A: > 100 µM (inactive)

Q: And the GI50 (SNB-75)?
A: > 100 µM (inactive)

Q: What about the GI50 (Malme-3M) of the same compound?
A: > 100 µM (inactive)

Q: What about the GI50 (NCI-H522) of the same compound?
A: > 100 µM (inactive)

Q: And the GI50 (SF-539)?
A: > 100 µM (inactive)

Q: What about the GI50 (DLD-1) of the same compound?
A: > 100 µM (inactive)

Q: And the GI50 (UACC-257)?
A: > 100 µM (inactive)

Q: And the GI50 (HCT-116)?
A: > 100 µM (inactive)

Q: What about the GI50 (KM12) of the same compound?
A: > 100 µM (inactive)

Q: What about the GI50 (SK-MEL-2) of the same compound?
A: > 100 µM (inactive)

Q: And the GI50 (DMS-273)?
A: > 100 µM (inactive)

Q: And the GI50 (A498)?
A: > 100 µM (inactive)

Q: And the GI50 (OVCAR-8)?
A: > 100 µM (inactive)

Q: What about the GI50 (HCT-15) of the same compound?
A: > 100 µM

Q: What about the GI50 (SF-295) of the same compound?
A: > 100 µM (inactive)

Q: What about the GI50 (SW-620) of the same compound?
A: > 100 µM (inactive)

Q: And the GI50 (SK-MEL-5)?
A: > 100 µM (inactive)

Q: What about the GI50 (EKVX) of the same compound?
A: > 100 µM (inactive)

Q: What about the GI50 (MOLT-4) of the same compound?
A: > 100 µM (inactive)

Q: What about the GI50 (SNB-78) of the same compound?
A: > 100 µM (inactive)

Q: And the GI50 (UACC-62)?
A: > 100 µM (inactive)

Q: And the GI50 (NCI-H23)?
A: > 100 µM (inactive)

Q: What about the GI50 (HOP-62) of the same compound?
A: > 100 µM (inactive)

Q: And the GI50 (HCC 2998)?
A: > 100 µM (inactive)

Q: What about the GI50 (RXF 393) of the same compound?
A: > 100 µM (inactive)

Q: And the GI50 (HOP-18)?
A: > 100 µM (inactive)

Q: And the GI50 (786-0)?
A: > 100 µM (inactive)

Q: And the GI50 (LOX IMVI)?
A: > 100 µM (inactive)

Q: What about the GI50 (LXFL 529) of the same compound?
A: > 100 µM (inactive)

Q: And the GI50 (SNB-19)?
A: > 100 µM (inactive)

Q: What about the GI50 (HL-60) of the same compound?
A: > 100 µM (inactive)

Q: And the GI50 (SF-268)?
A: > 100 µM (inactive)

Q: What about the GI50 (HOP-92) of the same compound?
A: > 100 µM (inactive)

Q: And the GI50 (CAKI-1)?
A: > 100 µM (inactive)

Q: What about the GI50 (ACHN) of the same compound?
A: > 100 µM (inactive)

Q: And the GI50 (KM-20L2)?
A: > 100 µM (inactive)

Q: And the GI50 (XF498)?
A: > 100 µM (inactive)

Q: What about the GI50 (M19-MEL) of the same compound?
A: > 100 µM (inactive)

Q: And the GI50 (TK-10)?
A: > 100 µM (inactive)

Q: And the GI50 (SR)?
A: > 100 µM (inactive)

Q: And the GI50 (COLO 205)?
A: > 100 µM (inactive)
